Data from patent US9556159B2, “Renin inhibitor” (MITSUBISHI TANABE PHARMA CORPORATION, priority 2012, dated 2017).
Where two headings read alike, the source gives them in different places.

Target: T1, Recombinant human renin (Homo sapiens, UniProt P00797)
T1 sequence (P00797 67-406): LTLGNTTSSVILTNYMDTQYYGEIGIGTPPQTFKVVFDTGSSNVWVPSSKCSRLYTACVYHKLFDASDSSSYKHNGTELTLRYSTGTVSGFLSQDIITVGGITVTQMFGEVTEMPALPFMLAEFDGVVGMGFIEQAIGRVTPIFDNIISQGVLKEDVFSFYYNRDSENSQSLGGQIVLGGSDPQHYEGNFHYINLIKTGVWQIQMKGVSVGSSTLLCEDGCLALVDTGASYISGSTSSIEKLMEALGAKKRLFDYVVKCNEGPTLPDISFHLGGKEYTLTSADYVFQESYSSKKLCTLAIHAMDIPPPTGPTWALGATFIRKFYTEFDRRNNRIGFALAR
Test: Inhibitory activity against human renin (fluorogenic peptide substrate)
Format: biochemical
Conditions: 37° C. for 1 hour

[1] = 50% inhibitory concentration (IC50) against human renin

Row | IC50 [1] | IC50 (read-out: IC50) | Compound
1 | 7.1 nM | – | COC[C@H]1CO[C@@H](C(=O)N(C2CC2)[C@@H](C)c2cnc(OC)c(CCCNC(=O)OC)c2)CN1 [Example 309]
2 | 2.7 nM | – | COC(=O)NCCCc1cc([C@@H](C)N(C(=O)[C@H]2CN[C@@H](C)CO2)C2CC2)cc(OC)n1 [Example 266]
3 | 1 nM | – | CCOC[C@H]1CO[C@@H](C(=O)N(C2CC2)[C@H](C)c2nn(CCCNC(=O)OC)c3nc(C)ccc23)CN1 [Example 273]
4 | 2.4 nM | – | COC(=O)NCc1cc([C@@H](C)N(C(=O)[C@H]2CNCCO2)C2CC2)nc2ccccc12 [Example 154]
5 | 0.1 nM | – | COC(=O)NCCCc1cc([C@@H](C)N(C(=O)[C@H]2CNCCO2)C2CC2)sc1-c1ccc(F)cn1 [Example 235]
6 | 5.4 nM | – | COC(=O)NCCCc1cc([C@@H](C)N(C(=O)[C@H]2CNCCO2)C2CC2)nc(C2CC2)n1 [Example 374]
7 | – | 1.1 nM | COC(=O)NCCc1cn(C)c2ccc([C@@H](C)N(C(=O)[C@H]3CNCCO3)C3CC3)cc12 [Example 108]
8 | 3.1 nM | – | COC(=O)NCCCn1nc([C@@H](C)N(C(=O)[C@H]2CNC[C@@H](C(F)(F)F)O2)C2CC2)c2ccc(C)nc21 [Example 239]
9 | 2.7 nM | – | COC(=O)NCCCc1cc(C(C)N(C(=O)[C@H]2CNCCO2)C2CC2)sc1C(C)CO (some centres unmarked) [Example 420]
10 | 0.3 nM | – | COC(=O)NCCCc1cc([C@H](C)N(C(=O)[C@H]2CNC[C@@H](COc3ccccc3)O2)C2CC2)nn1C1CCOCC1 [Example 334]
11 | 0.3 nM | – | COC(=O)NCCCn1nc([C@@H](C)N(C(=O)[C@H]2CNC[C@@H](C)O2)C2CC2)c2ccc(C)nc21 [Example 250]
12 | 6.9 nM | – | C[C@H](c1cn(Cc2cccc(OC(F)(F)F)c2)c(-c2ccccc2)n1)N(C(=O)[C@H]1CNCCO1)C1CC1 [Example 207]
13 | 1.4 nM | – | COC(=O)NCCCc1cc([C@@H](C)N(C(=O)[C@H]2CNC[C@@H](C)O2)C2CC2)nn1-c1ccc(C(F)(F)F)cc1 [Example 354]
14 | 0.5 nM | – | COC[C@H]1CO[C@@H](C(=O)N(C2CC2)[C@H](C)c2cn(CCCNC(=O)OC)c(C3CCCCC3)n2)CN1 [Example 289]
